Data taken from article PMC2131784, “Inhibition of Chk1 Kills Tetraploid Tumor Cells through a p53-Dependent Pathway” (PLoS ONE, 2007).

Target: T1, Chk1 (checkpoint kinase-1) (Homo sapiens, UniProt O14757)
T1 construct: gene CHEK1; recombinant Chk1
T1 sequence (O14757 1-476): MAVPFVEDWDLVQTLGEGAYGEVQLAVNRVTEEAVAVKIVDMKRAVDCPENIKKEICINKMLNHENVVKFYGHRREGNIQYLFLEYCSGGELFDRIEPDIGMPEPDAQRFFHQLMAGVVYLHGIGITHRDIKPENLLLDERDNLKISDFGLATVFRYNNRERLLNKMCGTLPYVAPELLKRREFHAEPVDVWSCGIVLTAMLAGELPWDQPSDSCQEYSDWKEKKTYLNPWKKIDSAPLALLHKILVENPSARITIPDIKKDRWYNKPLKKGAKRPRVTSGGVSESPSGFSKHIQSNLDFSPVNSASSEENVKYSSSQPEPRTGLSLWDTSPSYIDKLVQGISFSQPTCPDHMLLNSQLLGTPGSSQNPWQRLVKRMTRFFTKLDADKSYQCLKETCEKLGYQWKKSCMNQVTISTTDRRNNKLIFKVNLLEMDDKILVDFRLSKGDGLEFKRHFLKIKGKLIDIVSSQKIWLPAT
Assay: in vitro inhibition of recombinant Chk1 (assay details not given)
Format: biochemical

IC50: 29 nM
Substance: SD1825
